Data: US9925174B2, “Administration form for the oral application of 3-[(2-{[4-(hexyloxycarbonyl-amino-imino-methyl)-phenylamino]-methyl}-1-methyl-1 H-benzimidazol acid ethyl ester and the salts thereof” (Boehringer Ingelheim International GmbH, priority 2002, dated 2018)

Test: Solubility in water as a function of pH
Format: physicochemical

solubility in water at low pH levels (low pH): dissolves relatively well
solubility in water at pH levels above 5 (pH above 5, definition of the European Pharmacopoeia): virtually insoluble
SMILES: CCCCCCOC(=O)NC(=N)c1ccc(NCc2nc3cc(C(=O)N(CCC(=O)OCC)c4ccccn4)ccc3n2C)cc1 [compound of formula I, ethyl 3-[(2-{[4-(hexyloxycarbonylamino-imino-methyl)-phenylamino]-methyl}-1-methyl-1H-benzimidazole-5-carbonyl)-pyridin-2-yl-amino]-propionate]
